# Reference: US7390820B2, “Substituted quinolinone derivatives and methods of use” (Amgen Inc., priority 2003, dated 2008)
# Test system: Human Umbilical Vein Endothelial cells
# Assay: HUVEC proliferation assay (VEGF-stimulated)
# Assay type: cell-based
# Conditions: 72 h, CyQuant, read-out: inhibition of VEGF-stimulated HUVEC proliferation
# Method: Human Umbilical Vein Endothelial cells are purchased from Clonetics, Inc., as cryopreserved cells harvested from a pool of donors. These cells, at passage 1, are thawed and expanded in EBM-2 complete medium, until passage 2 or 3. The cells are trypsinized, washed in DMEM+10% FBS+antibiotics, and spun at 1000 rpm for 10 min. Prior to centrifugation of the cells, a small amount is collected for a cell count. After centrifugation, the medium is discarded, and the cells are resuspended in the appropriate volume of DMEM+10% FBS+antibiotics to achieve a concentration of 3×10^5 cells/mL. Another cell count is performed to confirm the cell concentration. The cells are diluted to 3×10^4 cells/mL in DMEM+10% FBS+antibiotics, and 100 μL of cells are added to a 96-well plate. The cells are incubated at 37° C. for 22 h.
# Prior to the completion of the incubation period, compound dilutions are prepared. Five-point, five-fold serial dilutions are prepared in DMSO, at concentrations 400-fold greater than the final concentrations desired. 2.5 μL of each compound dilution are diluted further in a total of 1 mL DMEM+10% FBS+antibiotics (400× dilution). Medium containing 0.25% DMSO is also prepared for the 0 μM compound sample. At the 22 h timepoint, the medium is removed from the cells, and 100 μL of each compound dilution is added. The cells are incubated at 37° C. for 2-3 h.
# During the compound pre-incubation period, the growth factors are diluted to the appropriate concentrations. Solutions of DMEM+10% FBS+antibiotics, containing either VEGF or bFGF at the following concentrations: 50, 10, 2, 0.4, 0.08, and 0 ng/mL are prepared. […]
# At the completion of the 72 h incubation period, the medium is removed, and the cells are washed twice with PBS. […] The cells are thawed and analyzed using the CyQuant fluorescent dye (Molecular Probes C-7026), following the manufacturer's recommendations. The plates are read on a Victor/Wallac 1420 workstation at 485 nm/530 nm (excitation/emission). Raw data are collected and analyzed using a 4-parameter fit equation in XLFit. IC50 values are then determined.
row,SMILES,IC50 [nM]
1,"CC(C)(C)c1ccc(N2CCc3cccc(NCc4ccncc4)c3C2=O)cc1 [Example 3, 2-(4-(1,1-Dimethylethyl)phenyl)-8-((4-pyridinylmethyl)amino)-3,4-dihydro-1(2H)-isoquinolinone]",< 500
2,"CC(C)(C)c1ccc(-n2ncc3cccc(NCc4ccncc4)c3c2=O)cc1 [Example 1, 2-(4-(1,1-Dimethylethyl)phenyl)-8-((4-pyridinylmethyl)amino)-1(2H)-phthalazinone]",< 500
3,"CC(C)(C)c1ccc(-n2ncc3cccc(NCc4c[nH]c5ncccc45)c3c2=O)cc1 [Example 2, 2-(4-(1,1-Dimethylethyl)phenyl)-8-((1H-pyrrolo[2,3-b]pyridin-3-ylmethyl)amino)-1(2H)-phthalazinone]",< 500
